Reference: patent US8637038B2, “Methods for inhibiting allograft rejection” (Rigel Pharmaceuticals, Inc., priority 2011, dated 2014)
Read-outs that look alike come from different tables or passages of the source.

What was measured:
JAK2 = test: GM-CSF whole blood granulocytes phospho-STAT5; type: cell-based; details: read-out: GM-CSF whole blood granulocytes phospho-STAT5 EC50
Description: (§1) The activity of Compound III and Compound I was assessed in a panel of cell-based assays. Compound III and Compound I are selective inhibitors of JAK1/3-dependent signaling. Data for a non-selective JAK inhibitor (Compound IV) is shown for reference. Mixed lymphocyte reactions (MLRs) were performed by incubating freshly prepared naive human peripheral blood lymphocytes from one donor with CD80+/CD86+ mature Dendritic Cells derived from a different donor for 5 days. The percentage of CD3+/CD71+ (anti-CD3-APC, Clone HIT3a, anti-CD 71-FITC, Clone M-A712; BD Biosciences, San Jose, Calif.) proliferating cells was assessed by fluorescence-activated cell sorting (FACS; BD Bioscience). Interleukin-2 (IL-2)-dependent human primary T cell proliferation was assessed using CellTiter-Glo® Luminescent Cell Viability Assay (Promega, Madison, Wis.). STAT phosphorylation induced by different cytokines in human primary T cells was measured by intracellular FACS analysis (anti-pY694-STAT5 AlexaFluor488, anti-pY701-STAT1 AlexaFluor488, and anti-pY693-STAT4 AlexaFluor488; BD Biosciences). […] Interferon-γ (IFN-γ) signaling was assessed in the U937 monocytic cell line by measuring ICAM-1 surface expression by FACS (ICAM-1-APC, BD Bioscience).

Lck/AZP70 = test: Anti-CD3/CD28 T cell IL-2 production; type: cell-based; details: Homo sapiens
Description: (§2) The erythropoietin (EPO)-dependent survival of cultured human erythroid progenitor cells (CHEPs) was determined using CellTiter-Glo® Luminescent Cell Viability Assay (Promega). Human primary T cell activation was assessed by measuring IL-2 production by ELISA (R&D Systems, Minneapolis, Minn., USA) following plate-bound anti-CD3 and anti-CD28 stimulation (Anti-Human CD3; BD Biosciences; Anti-Human CD28; Immunotech; Prague, Czech Republic). The enzymatic activity of tryptase released by human cultured mast cells (CHMCs) upon stimulation with IgE was quantified by cleavage of the synthetic fluorescent peptide substrate Z-Ala-Lys-Arg-7-amino-4-methylcoumarin (MP Biomedicals, Solon, Ohio, USA) in tryptase buffer. B-cell receptor-dependent Erk phosphorylation was measured in Ramos cells by intracellular FACS (anti-pT202/pY204-ERK1/2-AlexaFluor488; BD Biosciences). Cell proliferation assays were performed using A549 epithelial cells and H1299 lung carcinoma cells using nuclear staining to measure cell numbers (4′6-diamidino-2-phenylindole, dihydrochloride (DAPI; Invitrogen, Darmstadt, Germany)).

[1] = tested on: Lew recipients of heterotopic BN heart transplants; test: Five-day heart allograft study: CD3+/CD68+ immunohistochemistry; type: in vivo, rat; details: for CD68+ cell infiltration compared to Tac HD group / CD68+ cells compared to no medication group: HD groups, five days, p<0.001; for CD68+ and CD3+ cell infiltration compared to Tac LD group: LD groups (Compound I 15 mg/kg BID, Compound III 5 mg/kg BID), p<0.05
Text: Male Brown Norway (BN) and Lewis (Lew) rats weighing 350 g were purchased from Harlan (Indianapolis, Ind.) and were housed under conventional conditions. All animals were fed standard rat chow and water ad libitum and received humane care in compliance with the Principles of Laboratory Animal Care formulated by the National Society for Medical Research and the Guide for the care and Use of Laboratory Animals published by the National Institutes of Health (National Institutes of Health publication No. 85-23, revised 1985). Allogeneic (BN-to-Lew) and syngeneic (Lew-to-Lew) heterotopic heart transplantations were performed as described previously (Ono et al., J. Thorac. Cardiovasc. Surg. 57:225-229, 1969). In brief, rats were anaesthetized using 2% isoflurane. The donor received an intravenous bolus of 500 I.U. heparin. Cardiac arrest was achieved using 20 ml Bretschneider solution (Custodiol, Dr. F. Koehler Chemie, Bensheim, Germany). […] Heart-beating score was assessed directly after transplantation for each animal from score 0 (no palpable contraction) to 4 (strong and regular contraction). Only animals with beating scores of 4 were included into the study.
Compound I and Compound III were provided by Rigel (South San Francisco, Calif.) and Tacrolimus was provided by Astellas (Munich, Germany). All drugs were administrated orally each in two different concentrations: Compound I LD (15 mg/kg BID; n=6) and HD (60 mg/kg BID; n=6); Compound III LD (5 mg/kg BID; n=6) and HD (20 mg/kg BID; n=6); Tac LD (1 mg/kg QD; n=6) and HD (4 mg/kg QD; n=6). Administration of all drugs was performed every day at the same time points. Tacrolimus was applied only once a day (QD) every 24 hours. During administration of Compound I (BID) and Compound III (BID) a 12 hour pause was kept in between each drug application.
Lew recipients of heterotopic BN heart transplants were randomly assigned to their group. Animals were either left untreated (groups 1 and 2; see Table 1,5-day study) or received their group specific medication (groups 3-8; see Table 1,5-day study) by oral application. An untreated syngeneic transplant group Lew-Lew was generated as control.
Paraffin-embedded tissue sections were deparaffinized and rehydrated. Sections were incubated with protein blocking solution (ZytoChem Plus (AP) Polymer Kit; Zytomed Systems GmbH, Berlin, Germany) to prevent background staining. After antigen retrieval, specific antibodies against rat CD68 and CD3 (Serotec, Raleigh, N.C.) were applied to identify macrophages and lymphocytes, respectively, and visualized via alkaline phosphatase and new fuchsin substrate reaction (Zytomed System GmbH; Dako, Carpinteria, Calif.). Sections were counterstained by H+E (Waldeck). After overnight incubation with primary antibody solution and subsequent washing, enhancement reagent (ZytoChem) was applied, followed by enzymatic reaction of alkaline phosphatase induced by New Fuchsin Substrate System (Dako).
Inflammatory cell densities within the myocardium were assessed with the Leica QWin software (Leica Microsystems GmbH, Wetzlar, Germany) and expressed as cells/high-power field (HPF). Histological analyses of all stainings were done by a pathologist.

[2] = tested on: H1299 lung carcinoma cells; test: H1299 proliferation; type: cell-based; details: Homo sapiens
Description: as §2

JAK1/3 = test: IL-2 whole blood lymphocytes phospho-STAT5; type: cell-based; details: Lymphocyte, read-out: IL-2 whole blood lymphocytes phospho-STAT5 EC50
Description: as §1

JAK2/Tyk2 = test: IL-12 T cell phospho-STAT4; type: cell-based, human; details: for EC50: Homo sapiens, T-cell, read-out: IL-12 T cell phospho-STAT4 EC50; for inhibition of JAK2/Tyk2-dependent phosphorylation of Stat4 in response to IL-12: human primary T-cells
Description: The activity of Compound III and Compound I was assessed in a panel of cell-based assays. Compound III and Compound I are selective inhibitors of JAK1/3-dependent signaling. Data for a non-selective JAK inhibitor (Compound IV) is shown for reference. Mixed lymphocyte reactions (MLRs) were performed by incubating freshly prepared naive human peripheral blood lymphocytes from one donor with CD80+/CD86+ mature Dendritic Cells derived from a different donor for 5 days. The percentage of CD3+/CD71+ (anti-CD3-APC, Clone HIT3a, anti-CD 71-FITC, Clone M-A712; BD Biosciences, San Jose, Calif.) proliferating cells was assessed by fluorescence-activated cell sorting (FACS; BD Bioscience). Interleukin-2 (IL-2)-dependent human primary T cell proliferation was assessed using CellTiter-Glo® Luminescent Cell Viability Assay (Promega, Madison, Wis.). STAT phosphorylation induced by different cytokines in human primary T cells was measured by intracellular FACS analysis (anti-pY694-STAT5 AlexaFluor488, anti-pY701-STAT1 AlexaFluor488, and anti-pY693-STAT4 AlexaFluor488; BD Biosciences). STAT phosphorylation induced by different cytokines was performed in whole blood after red blood cell lysis (Lyse/Fix buffer, BD Biosciences) and methanol permeabilization. Interferon-γ (IFN-γ) signaling was assessed in the U937 monocytic cell line by measuring ICAM-1 surface expression by FACS (ICAM-1-APC, BD Bioscience).

SMILES | EC50 (JAK2; whole blood, JAK2) [nM] | EC50 (Lck/AZP70; upstream kinases Lck/AZP70, read-out: Anti-CD3/CD28 T cell IL-2 production EC50) [nM] | CD68+ cell infiltration compared to Tac HD group [1] | CD68+ cells compared to no medication group [1] | CD68+ and CD3+ cell infiltration compared to Tac LD group [1] | EC50 ([2]; NCI-H1299, upstream kinases Multiple, read-out: H1299 proliferation EC50) [nM] | EC50 (JAK1/3; whole blood, JAK1/3) [nM] | EC50 (JAK2/Tyk2; upstream kinases JAK2/Tyk2) [nM] | inhibition of JAK2/Tyk2-dependent phosphorylation of Stat4 in response to IL-12 (JAK2/Tyk2) | EC50 (JAK2) [nM] | EC50 (Lck/AZP70; read-out: Anti-CD3/CD28 T cell IL-2 production EC50) [nM] | EC50 ([2]; NCI-H1299, read-out: H1299 proliferation EC50) [nM] | EC50 (JAK1/3) [nM] | EC50 (JAK2/Tyk2) [nM]
COc1cc(Nc2ncc(C)c(Nc3ccc4oc(=O)[nH]c4c3)n2)cc(C)c1F [Compound I, 5-(2-(4-fluoro-3-methoxy-5-methylphenylamino)-5-methylpyrimidin-4-ylamino)benzo[d]oxazol-2(3H)-one] | 32700 ± 9510 | 2860 ± 118 | significantly less | significantly reduced | less CD68+ and CD3+ cell infiltration | 3430 ± 1310 | 416 ± 152 | 463 | only weakly inhibited |  |  |  |  | 
COc1cc(Nc2ncc(C)c(Nc3ccc4oc(=O)[nH]c4c3)n2)cc(C)c1C [Compound III, 5-(2-(3-methoxy-4,5-dimethylphenylamino)-5-methylpyrimidin-4-ylamino)benzol[d]oxazol-2-(3H)-one] |  |  | significantly less | significantly reduced | less CD68+ and CD3+ cell infiltration |  |  |  | only weakly inhibited | > 50000 | 19700 ± 2900 | 5080 ± 1820 | 887 ± 295 | 1560 ± 971
